{"source": "paper PMC2363072", "about": "“Oral topotecan: bioavailability and effect of food co-administration” (British Journal of Cancer, 1999)", "key": {"[1]": {"tested_on": "topoisomerase I", "design": "method as in Johnson and Wood, personal communication", "details": "ref Johnson and Wood, personal communication; cited from earlier work"}, "[2]": {"experiment": "clinical", "type": "in vivo, human (patients with solid tumours)", "details": "for Urinary excretion: 24 h urine", "from_the_text": "(§1) Topotecan (Hycamtin) is one of the prototypes of a promising new class of cytotoxic drugs that act through inhibition of topoisomerase I. Topoisomerase I is a nuclear enzyme that relieves the torsional strain in DNA ahead of the moving replication fork (Hsiang et al, 1988, 1989). Inhibition of the enzyme results in lethal DNA damage during transcription and replication. The E-ring lactone in the basic structure of topotecan is considered to be essential for interaction with the topoisomerase I enzyme (Hertzberg et al, 1989; Pommier et al, 1991). […] Prolonged administra- tion increases the probability that tumour cells will be exposed to topotecan during DNA replication, i.e. when they are most suscep- tible. In-vivo in patients there is yet no convincing evidence of a clinically relevant schedule dependency. Intravenous (i.v.) topotecan administered as daily 30-min infu- sions for 5 days has recently received marketing approval for the treatment of patients with ovarian cancer after failure of initial or subsequent platinum-based chemotherapy. An oral gelatin capsule formulation has now been developed (Creemers et al, 1997; Gerrits et al 1998). A phase I study has determined the maximum tolerated dose (MTD) for oral topotecan to be 2.3 mg m-2 for the daily times five dosing schedule (Gerrits et al, 1998). […] In these studies, bioavailability was tested in fasted patients. […] Food can have marked effects on drug absorption by increasing, decreasing, or sometimes simply delaying it. Food can also influence drug metabolism, and certain food components, such as protein and fat, are particularly potent in this respect. For an oral formulation it is therefore essential to investigate the effect of food co-administration on the pharmacokinetics. The aims of the present study were (1) to evaluate the effect of fed and fasted conditions on the bioavailability and pharmaco- kinetics of oral topotecan, and (2) to determine the absolute bioavailability of the gelatin capsule formulation. Oral topotecan: bioavailability and effect of food co-administration VMM Herben1,2 , H Rosing1 , WW ten Bokkel Huinink2 , DM van Zomeren1 , D Batchelor2 , E Doyle3 , FD Beusenberg4 , JH Beijnen1,2 and JHM Schellens2 1 Slotervaart Hospital/The Netherlands Cancer Institute, Department of Pharmacy and Pharmacology, Amsterdam, The Netherlands; 2 Antoni van Leeuwenhoek Hospital/The Netherlands Cancer Institute, Department of Medical Oncology, Amsterdam, The Netherlands; 3 SmithKline Beecham Pharmaceuticals, Department of Drug Metabolism and Pharmacokinetics, Hertfordshire, UK; 4 SmithKline Beecham Farma, Rijswijk, The Netherlands Summary The aims of the study were twofold: (1) to evaluate the effect of food on the relative oral bioavailability of topotecan gelatin capsules in patients with solid tumours, and (2) to determine the absolute bioavailability of oral topotecan with reference to the intravenous (i.v.) formulation. […] On day 1 of the first treatment course patients were administered 2.3 mg m-2 day-1 of oral topotecan with or without a high-fat breakfast. They crossed over to receive the alternate regimen on day 2. In the second course (3 weeks later) fasted patients received topotecan orally (2.3 mg m-2 day-1 ) or i.v. ([…]). They crossed over to receive the alternate regimen on day 2. On days 3-5 of both treatment courses patients received oral topotecan. Plasma pharmacokinetics were performed on days 1 and 2 of the first and second course using a high-performance liquid chromatographic assay. Eighteen patients were enrolled in the study. The ratio of the area under the curve to infinity during fasted and high-fat treatment was 0.93 0.23 (90% confidence interval (CI) 0.83-1.03). Maximal plasma concentrations of topotecan were similar after ingestion of the capsules with (10.6 4.4 ng ml-1 ) or without food (9.2 4.1 ng ml-1 ) (P = 0.130). […]"}, "[3]": {"design": "method as in Gerrits et al, 1998", "details": "oral gelatin capsule, ref Gerrits et al, 1998, cited from earlier work"}, "[4]": {"design": "method as in Eckardt et al, 1995; Schellens et al, 1996", "details": "i.v. formulation administered orally; fasted patients; ref Eckardt et al, 1995; Schellens et al, 1996; cited from earlier work"}, "[5]": {"design": "method as in Davies et al, 1995", "details": "dogs, ref Davies et al, 1995; cited from earlier work"}, "[6]": {"experiment": "clinical", "design": "species or system human (patients with solid tumours)", "details": "human, in vivo", "from_the_text": "as §1"}, "[7]": {"details": "metabolite as total of lactone and carboxylate, corrected for administered topotecan dose"}, "[8]": {"details": "total of the analyte, plasma, after i.v. topotecan 1.5 mg m-2"}, "[9]": {"details": "total, corrected for actual administered topotecan dose"}}, "note": "Like-named read-outs stand apart in the source and are kept apart here.", "data": [{"smiles": "CC[C@@]1(O)C(=O)OCc2c1cc1n(c2=O)Cc2cc3c(CNC)c(O)ccc3nc2-1", "note": "[N-desmethyltopotecan]", "values": [{"measurement": "topoisomerase I-inhibiting activity relative to parent compound", "setting": "[1]", "result": "slightly less topoisomerase I-inhibiting activity than the parent compound"}, {"measurement": "metabolic ratio (metabolite:topotecan AUC ratio)", "setting": "[2]; after i.v. administration", "result": 4.5, "unit": "%"}, {"measurement": "time at which maximal total metabolite plasma levels were reached, median", "setting": "[2]; after ingestion of topotecan capsules", "result": 4.0, "unit": "h"}, {"measurement": "metabolic ratio (metabolite:topotecan AUC ratio)", "setting": "[2]; after oral administration", "result": 6.9, "unit": "%"}, {"measurement": "time at which maximal total metabolite plasma levels were reached, median", "setting": "[2]; after the start of the i.v. infusion", "result": 2.1, "unit": "h"}, {"measurement": "lactone plasma concentrations", "setting": "[2]; lactone form of metabolite, lower limit of quantification 0.1 ng ml-1", "result": "below the detection limit in six patients"}, {"measurement": "oral:i.v. AUC0- (to infinity) ratio", "setting": "[2]; [7]", "result": 62, "unit": "%"}, {"measurement": "oral:i.v. AUC0-t ratio", "setting": "[2]; [7]", "result": 71, "unit": "%"}, {"measurement": "Cmax", "setting": "[2]; plasma, after i.v. topotecan 1.5 mg m-2", "result": 0.44, "unit": "ng/mL"}, {"measurement": "Cmax", "setting": "[2]; plasma, after oral topotecan 2.3 mg m-2", "result": 0.34, "unit": "ng/mL"}, {"measurement": "t1/2 ratio oral/i.v.", "setting": "[2]; total", "result": 1.17}, {"measurement": "AUC0-t", "setting": "[2]; total (lactone + carboxylate) of the analyte, plasma, after oral topotecan 2.3 mg m-2", "result": 2.7, "unit": "ng·h/mL"}, {"measurement": "Urinary excretion", "setting": "[2]; total of the analyte, % of i.v. topotecan dose", "result": 0.9, "unit": "%"}, {"measurement": "Urinary excretion", "setting": "[2]; total of the analyte, % of oral topotecan dose (topotecan corrected for F)", "result": 1.1, "unit": "%"}, {"measurement": "t1/2 (apparent terminal half-life)", "setting": "[2]; total of the analyte, after i.v. topotecan 1.5 mg m-2", "result": 6.21, "unit": "h"}, {"measurement": "t1/2 (apparent terminal half-life)", "setting": "[2]; total of the analyte, after oral topotecan 2.3 mg m-2", "result": 7.25, "unit": "h"}, {"measurement": "AUC0- (area under the curve to infinity)", "setting": "[2]; [8]", "result": 4.8, "unit": "ng·h/mL"}, {"measurement": "AUC0-t", "setting": "[2]; [8]", "result": 2.4, "unit": "ng·h/mL"}, {"measurement": "AUC0- (area under the curve to infinity)", "setting": "[2]; total of the analyte, plasma, after oral topotecan 2.3 mg m-2", "result": 4.6, "unit": "ng·h/mL"}, {"measurement": "AUC0- (to infinity) ratio oral/i.v.", "setting": "[2]; [9]", "result": 0.62}, {"measurement": "AUC0-t ratio oral/i.v.", "setting": "[2]; [9]", "result": 0.71}, {"measurement": "Cmax ratio oral/i.v.", "setting": "[2]; [9]", "result": 0.51}]}, {"smiles": "CC[C@@]1(O)C(=O)OCc2c1cc1n(c2=O)Cc2cc3c(CN(C)C)c(O)ccc3nc2-1", "note": "[topotecan, Topotecan]", "values": [{"measurement": "maximum tolerated dose (MTD)", "setting": "[3]; daily times five dosing schedule", "result": 2.3, "unit": "mg m-2"}, {"measurement": "Dose-limiting toxicity (DLT)", "setting": "[3]; daily times five", "result": "NCI CTC grade 4 neutropenia"}, {"measurement": "bioavailability", "setting": "[4]", "result": "30-44%"}, {"measurement": "part of an absorbed oral dose that enters the blood circulation as the open-ring form", "setting": "[5]", "result": "approximately 2.5%"}, {"measurement": "absolute bioavailability (F) using AUC0-t", "setting": "[2]; human, in vivo", "result": 40, "unit": "%"}, {"measurement": "bioavailability", "setting": "[2]; human, in vivo, absolute bioavailability (F)", "result": "42 ± 13", "unit": "%"}, {"measurement": "bioavailability", "setting": "[2]; human, in vivo, bioavailability calculated using only the lactone data", "result": 38, "unit": "%"}, {"measurement": "coefficient of variation of the AUC0- (interpatient variability)", "setting": "[2]; human, in vivo, iv", "result": 25, "unit": "%"}, {"measurement": "lactone:total topotecan AUC0- ratio", "setting": "[2]; human, in vivo, iv", "result": 0.38}, {"measurement": "AUC0- (area under the curve to infinity)", "setting": "[2]; human, in vivo, iv, 1.5 mg", "result": 38.6, "unit": "ng·h/mL"}, {"measurement": "t1/2 (apparent terminal half-life)", "setting": "[2]; human, in vivo, iv, 1.5 mg", "result": 2.64, "unit": "h"}, {"measurement": "Cmax", "setting": "[2]; human, in vivo, iv, 1.5 mg, Cmax", "result": 33.9, "unit": "ng/mL"}, {"measurement": "coefficient of variation of the AUC0- (interpatient variability)", "setting": "[2]; human, in vivo, po", "result": 44, "unit": "%"}, {"measurement": "lactone:total topotecan AUC0- ratio", "setting": "[2]; human, in vivo, po", "result": 0.35}, {"measurement": "AUC0- (area under the curve to infinity)", "setting": "[2]; human, in vivo, po, 2.3 mg", "result": 22.7, "unit": "ng·h/mL"}, {"measurement": "AUC0-t", "setting": "[2]; human, in vivo, po, 2.3 mg", "result": 20.4, "unit": "ng·h/mL"}, {"measurement": "Cmax", "setting": "[2]; human, in vivo, po, 2.3 mg, Cmax", "result": 6.3, "unit": "ng/mL"}, {"measurement": "plasma concentration at the pre-dose time point for day 2 (carry-over), mean", "setting": "[6]", "result": 0.43, "unit": "ng/mL"}, {"measurement": "AUC0- (to infinity) ratio fasted/fed", "setting": "[6]; po, 2.3 mg", "result": 0.88}, {"measurement": "time needed to reach maximal plasma levels (tmax), median", "setting": "[6]; po, 2.3 mg", "result": 2.0, "unit": "h"}, {"measurement": "AUC0-t", "setting": "[6]; po, 2.3 mg, AUC0-t", "result": 19.6, "unit": "ng·h/mL"}, {"measurement": "half-life", "setting": "[6]; po, 2.3 mg, t1/2 (apparent terminal half-life)", "result": 3.84, "unit": "h"}, {"measurement": "Tmax", "setting": "[6]; po, 2.3 mg, time needed to reach maximal plasma levels (tmax), median", "result": 3.1, "unit": "h"}, {"measurement": "half-life", "setting": "[6]; total, oral 2.3 mg m-2, fed, read-out: t1/2 (apparent terminal half-life) (converted)", "result": 3.49, "unit": "h"}]}]}
